Patent EP4616862A1, “ANTIVIRAL C[…] DERIVED FROM NUCLEIC ACID AND PHARMACEUTICALLY ACCEPTABLE SALTS THEREOF” (priority 2022, dated 2024)
Like-named read-outs stand apart in the source and are kept apart here.

What was measured:
Feline Calicivirus (FCV) = test: microbe, parasite or virus in culture; assay type: cell-based; details: for IC50: Feline calicivirus, CRFK
[1] = system: Canine distemper virus (CDV); test: microbe, parasite or virus in culture; assay type: cell-based; details: for IC50: canine distemper virus, Vero
[2] = Cytotoxicity (FIPV example); assay type: cell-based, feline; details: Table 9 (FIPV), cell line for cytotoxicity not given
[3] = Cytotoxicity (CAV example); assay type: cell-based, monkey; details: Table 5 (CAV), cell line for cytotoxicity not given
[4] = Cytotoxicity (CCoV example); assay type: cell-based, canine; details: Table 4 (CCoV), cell line for cytotoxicity not given
in vitro [5] = test: in vitro
[6] = system: Canine coronavirus (CCoV); test: microbe, parasite or virus in culture; assay type: cell-based
[7] = system: African Swine Fever Virus (ASFV, China/2018/AnhuiXCGQ); test: microbe, parasite or virus in culture; assay type: cell-based; details: for IC50: African swine fever virus
FIPV = FIPV infection inhibition in FCWF-4 cells (RT-qPCR); assay type: cell-based, Feline Infectious peritonitis virus; details: for IC50: Alphacoronavirus 1, 48 h, FCWF-4 cell line, FIPV 100 TCID50/well, simultaneous treatment, 2 days, RT-qPCR, read-out: IC50 (FIPV infection inhibition concentration); for SI (selectivity index): FIPV, CC50/IC50
ISG15 = assay type: cell-based, Pig
Mx1 = assay type: cell-based, Pig
Canine adenovirus (CAV) = test: CAV infection inhibition in Vero cells (qPCR of viral DNA); assay type: cell-based; details: for SI (selectivity index): CC50/IC50; for IC50: Canine mastadenovirus A, Vero cell line
[8] = Cytotoxicity (FPV example); assay type: cell-based, feline; details: Table 7 (FPV), cell line for cytotoxicity not given
[9] = system: Low pathogenic avian influenza virus (LPAIV, H9N2); test: microbe, parasite or virus in culture; assay type: cell-based; details: for IC50: unidentified influenza virus, H9N2, MDCK
in vitro [10] = test: in vitro; remark: listed apart in the source
RNaseL = assay type: cell-based, Pig
[11] = Cytotoxicity (CDV example); assay type: cell-based, monkey; details: Table 6 (CDV), cell line for cytotoxicity not given
in vitro [12] = test: in vitro; remark: listed apart in the source
[13] = Cytotoxicity (FCV example); assay type: cell-based, feline; details: Table 8 (FCV), cell line for cytotoxicity not given
Feline parvovirus (FPV) = test: microbe, parasite or virus in culture; assay type: cell-based; details: for IC50: Feline parvovirus, CRFK
[14] = system: Classical Swine Fever Virus (CSFV); test: microbe, parasite or virus in culture; assay type: cell-based; details: for IC50: Classical swine fever virus
in vitro [15] = details: hamster, bhk-21 cells
[16] = system: foot and mouth disease virus (FMDV); test: microbe, parasite or virus in culture; assay type: cell-based; details: for IC50: Foot-and-mouth disease virus
[17] = 24 h, read-out: IC50 (FCV infection inhibition concentration)
[18] = 72 h, read-out: IC50 (CDV infection inhibition concentration)
[19] = Alphacoronavirus 1, A-72, 48 h, read-out: IC50 (CCoV infection inhibition concentration)
[20] = 48 h, read-out: IC50 (ASFV infection inhibition concentration)
[21] = 48 h, CAV 100 TCID50/well, simultaneous treatment, 2 days, qPCR, read-out: IC50 (CAV infection inhibition concentration)
[22] = 48 h, read-out: IC50 (LPAIV infection inhibition concentration)
[23] = 48 h, read-out: IC50 (FPV infection inhibition concentration)
[24] = PK-15, 48 h, read-out: IC50 (CSFV infection inhibition concentration)
[25] = BHK-21, 36 h, read-out: IC50 (FMDV infection inhibition concentration)

O=C[C@@H](CO)O[C@H](C=O)n1cnc2c(=O)[nH]c(=O)[nH]c21 [Dialdehyde-Xanthosine, dialdehyde form of xanthosine]
SI (selectivity index) (Feline Calicivirus (FCV)): > 398.0
IC50 (Feline Calicivirus (FCV); [17]): < 20.1 µM
SI (selectivity index) [1]: > 125.1
IC50 [1]: 79.9 µM
IC50 [1, 18]: < 79.9 µM
CC50 [2]: > 10 mM
CC50 [3]: > 10 mM
CC50 [4]: > 10 mM
CC50 (in vitro [5]): > 10 mM
SI (selectivity index) [6]: > 232.6
IC50 ([6]; Alphacoronavirus 1, A-72): 43 µM
IC50 [6, 19]: < 43 µM
SI (selectivity index) [7]: > 90.9
IC50 [7, 20]: < 110 µM
IC50 (FIPV): < 55.1 µM
SI (selectivity index) (FIPV): > 181.4
Fold change (multiple increase compared to control group) ISG15 (ISG15): 4.5 (±0.4)
Fold change (multiple increase compared to control group) Mx1 (Mx1): 3.5 (±1.0)
SI (selectivity index) (Canine adenovirus (CAV); CAV): > 77.2
IC50 (Canine adenovirus (CAV); [21]): < 130 µM
CC50 [8]: > 8 mM
SI (selectivity index) [9]: > 45.1
IC50 [9, 22]: < 222 µM
CC50 (in vitro [10]): > 10 mM
Fold change (multiple increase compared to control group) RNaseL (RNaseL): 3.4 (±0.2)
CC50 [11]: > 10 mM
CC50 (in vitro [12]): > 10 mM
CC50 [13]: > 8 mM
SI (selectivity index) (Feline parvovirus (FPV)): > 258
IC50 (Feline parvovirus (FPV)): 31 µM
IC50 (Feline parvovirus (FPV); [23]): < 31 µM
SI (selectivity index) [14]: > 63.8
IC50 ([14]; PK-15): 157 µM
IC50 [14, 24]: < 157 µM

O=c1[nH]cnc2c1ncn2[C@@H](CO)OC(CO)CO [Acyclic diol-Inosine, acyclic diol form of inosine]
SI (selectivity index) (Feline Calicivirus (FCV)): > 27.6
IC50 (Feline Calicivirus (FCV); [17]): < 362 µM
SI (selectivity index) [1]: > 3.7
IC50 [1, 18]: < 2700 µM
CC50 ([2]; cat, fcwf-4 cells): > 10 mM
CC50 ([3]; monkey, vero cells): > 10 mM
CC50 ([4]; dog, a-72 cells): > 10 mM
CC50 (in vitro [5]; pig, pam cells): > 10 mM
SI (selectivity index) [6]: > 7.9
IC50 [6, 19]: < 1270 µM
SI (selectivity index) [7]: > 28.3
IC50 [7, 20]: < 353 µM
IC50 (FIPV): < 872 µM
SI (selectivity index) (FIPV): > 11.5
Fold change (multiple increase compared to control group) ISG15 (ISG15): 6.3 (±0.4)
Fold change (multiple increase compared to control group) Mx1 (Mx1): 2.8 (±0.9)
CC50 (in vitro [15]): > 10 mM
SI (selectivity index) (Canine adenovirus (CAV); CAV): > 5.6
IC50 (Canine adenovirus (CAV); [21]): < 1780 µM
CC50 ([8]; cat, crfk cells): > 10 mM
SI (selectivity index) [16]: > 8.3
IC50 [16, 25]: < 1200 µM
IC50 [9, 22]: < 1810 µM
CC50 (in vitro [10]; dog, mdck): > 10 mM
Fold change (multiple increase compared to control group) RNaseL (RNaseL): 2.0 (±0.3)
CC50 ([11]; monkey, vero cells): > 10 mM
CC50 (in vitro [12]; pig, pk15 cells): > 10 mM
CC50 ([13]; cat, crfk cells): > 10 mM
SI (selectivity index) (Feline parvovirus (FPV)): > 5.4
IC50 (Feline parvovirus (FPV); [23]): < 1870 µM
SI (selectivity index) [14]: > 5.7
IC50 [14, 24]: < 1750 µM

Nc1nc2c(ncn2[C@@H](CO)OC(CO)CO)c(=O)[nH]1 [Acyclic diol-Guanosine, acyclic diol form of guanosine]
SI (selectivity index) (Feline Calicivirus (FCV)): > 75.1
IC50 (Feline Calicivirus (FCV); [17]): < 133 µM
SI (selectivity index) [1]: > 4.7
IC50 [1, 18]: < 2120 µM
CC50 ([2]; cat, fcwf-4 cells): > 10 mM
CC50 ([3]; monkey, vero cells): > 10 mM
CC50 ([4]; dog, a-72 cells): > 10 mM
CC50 (in vitro [5]; pig, pam cells): > 10 mM
SI (selectivity index) [6]: > 4.5
IC50 [6, 19]: < 2240 µM
SI (selectivity index) [7]: > 37.0
IC50 [7, 20]: < 270 µM
IC50 (FIPV): < 1510 µM
SI (selectivity index) (FIPV): > 6.6
Fold change (multiple increase compared to control group) ISG15 (ISG15): 4.2 (±1.5)
Fold change (multiple increase compared to control group) Mx1 (Mx1): 4.0 (±1.2)
CC50 (in vitro [15]): > 10 mM
SI (selectivity index) (Canine adenovirus (CAV); CAV): > 2.4
IC50 (Canine adenovirus (CAV); [21]): < 4130 µM
CC50 ([8]; cat, crfk cells): > 10 mM
SI (selectivity index) [16]: > 4.9
IC50 [16, 25]: < 2060 µM
IC50 [9, 22]: < 1340 µM
CC50 (in vitro [10]; dog, mdck): > 10 mM
Fold change (multiple increase compared to control group) RNaseL (RNaseL): 3.0 (±0.8)
CC50 ([11]; monkey, vero cells): > 10 mM
CC50 (in vitro [12]; pig, pk15 cells): > 10 mM
CC50 ([13]; cat, crfk cells): > 10 mM
SI (selectivity index) (Feline parvovirus (FPV)): > 1.9
IC50 (Feline parvovirus (FPV); [23]): < 530 µM
SI (selectivity index) [14]: > 2.8
IC50 [14, 24]: < 3610 µM

Nc1nc2c(ncn2[C@@H](C=O)O[C@@H](C=O)CO)c(=O)[nH]1 [Dialdehyde-Guanosine, dialdehyde form of guanosine]
SI (selectivity index) (Feline Calicivirus (FCV)): > 329.7
IC50 (Feline Calicivirus (FCV)): 18.2 µM
IC50 (Feline Calicivirus (FCV); [17]): < 18.2 µM
SI (selectivity index) [1]: > 46.5
IC50 [1, 18]: < 129 µM
CC50 ([2]; cat, fcwf-4 cells): > 6 mM
CC50 ([3]; monkey, vero cells): > 6 mM
CC50 ([4]; dog, a-72 cells): > 6 mM
CC50 (in vitro [5]; pig, pam cells): > 6 mM
SI (selectivity index) [6]: > 54.7
IC50 ([6]; Alphacoronavirus 1, A-72): 110 µM
IC50 [6, 19]: < 110 µM
SI (selectivity index) [7]: > 75.9
IC50 [7]: 79 µM
IC50 [7, 20]: < 79 µM
IC50 (FIPV): < 52.8 µM
SI (selectivity index) (FIPV): > 113.7
Fold change (multiple increase compared to control group) ISG15 (ISG15): 4.7 (±0.3)
Fold change (multiple increase compared to control group) Mx1 (Mx1): 3.5 (±0.7)
CC50 (in vitro [15]): > 6 mM
SI (selectivity index) (Canine adenovirus (CAV); CAV): > 69.8
IC50 (Canine adenovirus (CAV); [21]): < 85.9 µM
IC50 (Canine adenovirus (CAV); CAV, read-out: IC50): 85.9 µM
CC50 ([8]; cat, crfk cells): > 6 mM
SI (selectivity index) [16]: > 52.3
IC50 ([16]; BHK-21): 115 µM
IC50 [16, 25]: < 115 µM
IC50 [9]: 102 µM
IC50 [9, 22]: < 102 µM
CC50 (in vitro [10]; dog, mdck): > 6 mM
Fold change (multiple increase compared to control group) RNaseL (RNaseL): 2.5 (±0.1)
CC50 ([11]; monkey, vero cells): > 6 mM
CC50 (in vitro [12]; pig, pk15 cells): > 6 mM
CC50 ([13]; cat, crfk cells): > 6 mM
SI (selectivity index) (Feline parvovirus (FPV)): > 158
IC50 (Feline parvovirus (FPV); [23]): < 38 µM
SI (selectivity index) [14]: > 36.1
IC50 [14, 24]: < 165 µM
